Results reported in patent publication US8101621B2, “Aminopyridine derivatives having aurora a selective inhibitory action” (MSD K.K., priority 2006, dated 2012).
Values joined by “and” are separate entries in the source; they are usually repeats but may differ in a detail not shown here. Equal entries are not always repeated. Structures can show the parent of a compound that is named as a salt.

What was measured:
Aurora B = biological target: T1, Aurora B (Homo sapiens, UniProt Q96GD4); test: Aurora B inhibitory action (Kemptide substrate, [γ-33P]ATP, 100 μM ATP); type: biochemical; settings: 30° C., 20 minutes
T1 construct: histidine tag (N); made in house; host or cells: Escherichia coli BL21-CodonPlus (DE3)-RIL
T1 sequence (Q96GD4 whole entry): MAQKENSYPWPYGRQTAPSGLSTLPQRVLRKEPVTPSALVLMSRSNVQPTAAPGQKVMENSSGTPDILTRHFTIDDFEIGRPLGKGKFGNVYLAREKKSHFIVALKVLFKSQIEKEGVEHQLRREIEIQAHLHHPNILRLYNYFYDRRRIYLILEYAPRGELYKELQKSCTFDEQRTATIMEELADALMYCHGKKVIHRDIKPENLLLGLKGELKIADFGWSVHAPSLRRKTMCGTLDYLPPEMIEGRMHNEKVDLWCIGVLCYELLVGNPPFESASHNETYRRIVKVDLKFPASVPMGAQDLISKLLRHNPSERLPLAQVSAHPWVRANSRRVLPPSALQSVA
From the text: (§1) cDNA of Aurora B having histidine tag fused at the amino terminal was integrated into an expression vector, which was then highly expressed in Escherichia coli BL21-CodonPlus (DE3)-RIL cells. The Escherichia coli cells were recovered and solubilized, and then the histidine-tagged Aurora A protein was adsorbed onto a nickel chelate column and eluted from the column with imidazole. The active fraction was desalted with a desalting column to give a pure enzyme.
For measurement of the activity of Aurora B, the substrate used was Kemptide (Leu-Arg-Arg-Ala-Ser-Leu-Gly) (SEQ.ID.NO.: 1), a synthetic peptide purchased from Sigma-Aldrich, Inc. [Certificate of analysis (Upstate, Inc.)].
Reaction was conducted by a partial modification of the method of activity measurement for Aurora A. The amount of the reaction liquid was 21.1 μL, and the composition of the reaction buffer (R2 buffer) was 50 mM Tris-hydrochloride buffer (pH 7.4)/15 mM magnesium acetate/0.2 mM ethylenediamine-N,N,N′,N′-tetraacetate (EDTA). To this, purified Aurora B, 100 μM of a substrate peptide, 100 μM of unlabeled adenosine triphosphate (ATP) and 1 μCi of [γ-^33P] labeled ATP (2,500 Ci/mmole or more) were added, and the mixture was reacted at 30° C. for 20 minutes. Then, 10 μL of 350 mM phosphate buffer was added to the reaction system to stop the reaction. The substrate peptide was adsorbed on a P81 paper filter 96-well plate and then washed with 130 mM phosphate buffer for several times. The radiation activity of the peptide was measured with a liquid scintillation counter. The [γ-^33P] labeled ATP was purchased from Amersham Biosciences Co., Ltd.
(§2) The compound to be tested was added to the reaction system such that a dilution series of the compound in dimethylsulfoxide was first prepared, and 1.1 μL of this solution was added. A control was provided by adding 1.1 μL of DMSO to the reaction system.

Aurora A = biological target: T2, Aurora A (Homo sapiens, UniProt O14965); test: Aurora A inhibitory action (Kemptide substrate, [γ-33P]ATP, 20 μM ATP); type: biochemical; settings: 30° C., 20 minutes
T2 construct: histidine tag (N); made in house; host or cells: Escherichia coli BL21-CodonPlus (DE3)-RIL
T2 sequence (O14965 1-403): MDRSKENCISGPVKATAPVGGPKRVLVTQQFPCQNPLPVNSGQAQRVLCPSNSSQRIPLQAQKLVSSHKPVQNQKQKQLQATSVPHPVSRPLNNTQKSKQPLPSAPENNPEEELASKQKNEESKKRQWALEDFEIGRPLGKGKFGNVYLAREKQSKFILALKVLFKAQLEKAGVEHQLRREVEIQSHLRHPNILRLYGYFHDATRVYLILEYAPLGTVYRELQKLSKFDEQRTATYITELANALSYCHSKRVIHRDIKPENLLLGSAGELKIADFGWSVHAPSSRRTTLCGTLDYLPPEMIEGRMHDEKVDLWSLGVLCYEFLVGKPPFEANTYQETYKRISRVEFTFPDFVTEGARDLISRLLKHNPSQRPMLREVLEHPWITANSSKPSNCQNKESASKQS
From the text: as §1, with “Aurora A” for “Aurora B”
For measurement of the activity of Aurora A, the substrate used was Kemptide (Leu-Arg-Arg-Ala-Ser-Leu-Gly) (SEQ.ID.NO.: 1), a synthetic peptide purchased from Sigma-Aldrich, Inc. [Certificate of analysis (Upstate, Inc.)].
Reaction was conducted by a partial modification of a method by Upstate, Inc. [Kinase Profiler™ Assay Protocols]. The amount of the reaction liquid was 21.1 μL, and the composition of the reaction buffer (R2 buffer) was 50 mM Tris-hydrochloride buffer (pH 7.4)/15 mM magnesium acetate/0.2 mM ethylenediamine-N,N,N′,N′-tetraacetate (EDTA). To this, purified Aurora A, 100 μM of a substrate peptide, 20 μM of unlabeled adenosine triphosphate (ATP) and 0.5 μCi of [γ-^33P] labeled ATP (2,500 Ci/mmole or more) were added, and the mixture was reacted at 30° C. for 20 minutes. Then, 10 μL of 350 mM phosphate buffer was added to the reaction system to stop the reaction. The substrate peptide was adsorbed on a P81 paper filter 96-well plate and then washed with 130 mM phosphate buffer for several times. The radiation activity of the peptide was measured with a liquid scintillation counter. The [γ-^33P] labeled ATP was purchased from Amersham Biosciences Co., Ltd.
as §2

[1] = tested on: Human cervical cancer cells (HeLa S3); test: Effect by combined use with paclitaxel in cells, WST-8 method; type: cell-based; settings: three days, DMSO = 0%; for inhibition at 1 µM: HeLa S3, compound 1.0 μM alone
Procedure: Fetal calf serum (FCS) was purchased from Moregate Biotech, DMEM medium from Invitrogen Corp., paclitaxel (tradename: Taxol) from Sigma-Aldrich, Inc., and WST-8 from Kishida Chemical Co., Ltd.
(§3) Human cervical cancer cells (HeLa S3) were obtained from the American Type Culture Collection (ATCC).
Cells were suspended in a DMEM medium containing 10% FCS, and the cell suspension was dispensed to two 96-well plastic plates at a rate of 750 cells/100 microliters per well. The plates were incubated overnight in 5% CO2-95% air at 37° C. A drug was subjected to graded dilution in dimethylsulfoxide and further diluted with […] a DMEM medium containing 10% FCS and also containing 2 nM paclitaxel. Then, the dilutions were each dispensed to one of the plates on which cells had been disseminated, at a rate of 100 microliters per well. The final concentration of paclitaxel at this stage was 1 nM. Also, the concentrations in the case of sole administration of the compound according to the invention were 0.03, 0.1, 0.3, 1 and 3 μM. The plates were incubated for further three days in 5% CO2-95% air at 37° C. Cell growth after incubation was measured by the WST-8 method (H. Tominaga, et al., Anal. Commun., 36, 47-50 (1999)). Here, the WST-8 method refers to a method in which 20 microliters of a WST-8 reagent solution is added to each well, incubation is conducted at 37° C. for 45 minutes, the plate is stirred, and the amount of formazan produced is measured by a colorimetric method to determine the inhibitory rate of the drug. The growth inhibitory effects of paclitaxel and of the compound according to the invention were determined, with the value obtained in sole treatment of DMSO being defined as 0%.

[2] = tested on: Human cervical cancer cells (HeLa S3); test: Cell growth inhibitory effect, WST-8 method; type: cell-based; settings: 72 h, HeLa S3, three days incubation
Procedure: Fetal calf serum (FCS) was purchased from Moregate Biotech, and DMEM medium was purchased from Invitrogen Corp. WST-8 was purchased from Kishida Chemical Co., Ltd.
as §3
Cells were suspended in a DMEM medium containing 10% FCS, and the cell suspension was dispensed to a 96-well plastic plate at a rate of 750 cells/100 microliters per well. The plate was incubated overnight in 5% CO2-95% air at 37° C. A drug was subjected to graded dilution in dimethylsulfoxide and further diluted with a DMEM medium containing 10% FCS. Then, the dilution was dispensed to the plate on which cells had been disseminated, at a rate of 100 microliters per well. The plate was incubated for further three days in 5% CO2-95% air at 37° C. Cell growth after incubation was measured by the WST-8 method (H. Tominaga, et al., Anal. Commun., 36, 47-50 (1999)). Here, the WST-8 method refers to a method in which 20 microliters of a WST-8 reagent solution is added to each well, incubation is conducted at 37° C. for 45 minutes, the plate is stirred, and the amount of formazan produced is measured by a calorimetric method to determine the inhibitory rate of the drug. The concentration for 50% growth inhibition (EC50, μM) of the compound was determined.

[3] = HeLa S3, compound 1.0 μM + paclitaxel 1 nM
[4] = Homo sapiens, HeLa S3, 72 h, read-out: Cell growth inhibitory effect by sole administration of the compound of Example (%)

Row | SMILES | IC50 (Aurora B) [µM] | IC50 (Aurora A) [µM] | IC50 [2] [µM] | Cell growth inhibitory effect by combined administration of paclitaxel and the compound of Example (%) [1, 3] [%] | inhibition at 1 µM [1, 4] [%] | Cell growth inhibitory effect by combined administration of paclitaxel and the compound of Example (%) ([1]; HeLa S3, compound 0.1 μM + paclitaxel 1 nM) | inhibition at 0.1 µM ([1]; Homo sapiens, HeLa S3, 72 h, HeLa S3, compound 0.1 μM alone, read-out: Cell growth inhibitory effect by sole administration of the compound of Example (%)) [%] | Cell growth inhibitory effect by sole administration of paclitaxel (1 nM) (%) ([1]; HeLa S3, paclitaxel 1 nM alone) | inhibition at 0.001 µM ([1]; Homo sapiens, HeLa S3, 72 h, HeLa S3, paclitaxel 1 nM alone, read-out: Cell growth inhibitory effect by sole administration of paclitaxel (1 nM) (%)) [%]
1 | Cc1cc(Nc2cc[nH]n2)nc(CN2C[C@@H]3C[C@H]2CN3C(=O)c2cccc(Cl)c2F)n1 [Example 1, 2-(((1S,4S)-5-(3-chloro-2-fluorobenzoyl)-2,5-diazabicyclo[2.2.1]hept-2-yl)methyl)-6-methyl-N-1H-pyrazol-3-ylpyrimidine-4-amine] | 0.64 | 0.003 | 5.08 | 83.0 | 14.3 | – | – | – | –
2 | O=C(c1cccc(C(F)(F)F)c1F)N1C[C@@H]2C[C@H]1CN2Cc1nccc(Nc2cc[nH]n2)n1 [Example 6, 2-(((1S,4S)-5-(2-fluoro-3-(trifluoromethyl)benzoyl)-2,5-diazabicyclo[2.2.1]hept-2-yl)methyl)-N-1H-pyrazol-3-ylpyrimidine-4-amine] | 2.8 | 0.0061 | 9.75 | 71.7 | 1.7 | – | – | – | –
3 | Cc1cc(Nc2cc(C)[nH]n2)nc(CN2C[C@@H]3C[C@H]2CN3C(=O)c2cccc(Cl)c2F)n1 [Example 7] | 0.3 | 0.0057 | – | – | – | – | – | – | –
4 | Cc1cc(Nc2ccnc(CN3C[C@@H]4C[C@H]3CN4C(=O)c3cccc(Cl)c3F)n2)n[nH]1 [Example 9, 2-(((1S,4S)-5-(3-chloro-2-fluorobenzoyl)-2,5-diazabicyclo[2.2.1]hept-2-yl)methyl)-N-(5-methyl-1H-pyrazol-3-yl)pyrimidine-4-amine] | 0.69 | 0.0098 | – | 79.5 | 12.4 | – | – | – | –
5 | O=C(c1cccc(Cl)c1Cl)N1C[C@@H]2C[C@H]1CN2Cc1cncc(Nc2cc[nH]n2)n1 [Example 10, 6-(((1S,4S)-5-(2,3-dichlorobenzoyl)-2,5-diazabicyclo[2.2.1]hept-2-yl)methyl)-N-1H-pyrazol-3-ylpyrazine-2-amine trifluoroacetate] | 2.1 | 0.0071 | 4.6 | 84.8 | 8.9 | – | – | – | –
6 | O=C(c1cccc(C(F)(F)F)c1Cl)N1C[C@H]2C[C@@H]1CN2Cc1cncc(Nc2cc[nH]n2)n1 [Example 12] | 2.3 | 0.0048 | – | – | – | – | – | – | –
7 | CC(=O)O[C@H]1C(=O)[C@@]2(C)[C@H]([C@H](OC(=O)c3ccccc3)[C@]3(O)C[C@H](OC(=O)[C@H](O)[C@@H](NC(=O)c4ccccc4)c4ccccc4)C(C)=C1C3(C)C)[C@]1(OC(C)=O)CO[C@@H]1C[C@@H]2O [paclitaxel, reference compound] | – | – | – | – | – | – | – | 47.1% and 51.4% | 47.2

More lines, main results first:

Row | IC50 (Aurora B) [µM] | IC50 (Aurora A) [µM] | IC50 [2] [µM] | SMILES | Cell growth inhibitory effect by combined administration of paclitaxel and the compound of Example (%) [1, 3] [%] | inhibition at 1 µM [1, 4] [%] | Cell growth inhibitory effect by combined administration of paclitaxel and the compound of Example (%) ([1]; HeLa S3, compound 0.1 μM + paclitaxel 1 nM) | inhibition at 0.1 µM ([1]; Homo sapiens, HeLa S3, 72 h, HeLa S3, compound 0.1 μM alone, read-out: Cell growth inhibitory effect by sole administration of the compound of Example (%)) [%] | Cell growth inhibitory effect by sole administration of paclitaxel (1 nM) (%) ([1]; HeLa S3, paclitaxel 1 nM alone) | inhibition at 0.001 µM ([1]; Homo sapiens, HeLa S3, 72 h, HeLa S3, paclitaxel 1 nM alone, read-out: Cell growth inhibitory effect by sole administration of paclitaxel (1 nM) (%)) [%]
8 | 0.26 | 0.0013 | 0.67 | CN(C)C(=O)c1cc(CN2C[C@@H]3C[C@H]2CN3C(=O)c2cccc(Cl)c2F)nc(Nc2nccs2)c1 [Example 21, 2-(((1S,4S)-5-(3-chloro-2-fluorobenzoyl)-2,5-diazabicyclo[2.2.1]hept-2-yl)methyl)-N,N-dimethyl-6-(1,3-thiazol-2-ylamino)isonicotinamide] | – | – | 81.3 | 14.9 | – | –
9 | 0.59 | 0.0014 | – | CN(C)C(=O)c1cc(CN2C[C@@H]3C[C@H]2CN3C(=O)c2cccc(C(F)(F)F)c2F)nc(Nc2nccs2)c1 [Example 22, 2-(((1S,4S)-5-(2-fluoro-3-(trifluoromethyl)benzoyl)-2,5-diazabicyclo[2.2.1]hept-2-yl)methyl)-N,N-dimethyl-6-(1,3-thiazol-2-ylamino)isonicotinamide trifluoroacetate] | – | – | – | – | – | –
10 | 0.33 | 0.0014 | – | CN(C)C(=O)c1cc(CN2C[C@@H]3C[C@H]2CN3C(=O)c2cccc(Cl)c2C#N)nc(Nc2nccs2)c1 [Example 23, 2-(((1S,4S)-5-(3-chloro-2-cyanobenzoyl)-2,5-diazabicyclo[2.2.1]hept-2-yl)methyl)-N,N-dimethyl-6-(1,3-thiazol-2-ylamino)isonicotinamide trifluoroacetate] | – | – | – | – | – | –
11 | 0.19 | 0.0011 | – | CN(C)C(=O)c1cc(CN2C[C@@H]3C[C@H]2CN3C(=O)c2cccc(C(F)(F)F)c2C#N)nc(Nc2nccs2)c1 [Example 24, 2-(((1S,4S)-5-(2-cyano-3-(trifluoromethyl)benzoyl)-2,5-diazabicyclo[2.2.1]hept-2-yl)methyl)-N,N-dimethyl-6-(1,3-thiazol-2-ylamino)isonicotinamide] | – | – | – | – | – | –
